# Measured values: patent US5763442A, “Anti-parasitic activity” (Universiteit Van Pretoria, priority 1995, dated 1998)
# System: Plasmodium falciparum (Fab-9)
# Assay: Microscopic parasitaemia, chloroquine sensitive strain Fab-9 (reversal of chloroquine resistance)
# Type: cell-based
# Settings: for Percentage red blood cells infected with P. falciparum (Fab-9): 24 h
# Procedure: The activity of riminophenazines to reverse chloroquine resistance in Plasmodium falciparum was tested in the following manner:
# A preliminary series of experiments were carried out using two laboratory strains of P. falciparum (RB-1 and Fab-9). These strains were obtained from the Medical Research Council, Durban, where they were characterised as being either mildly resistant or sensitive to chloroquine. The isolates were maintained in suspension culture in known manner (as described by Freese J A, Markus M B and Golenser J, 1991; Bulletin of the World Health Organization 69: 707-712).
# Infected erythrocytes were diluted with human O-positive red blood cells to a parasitaemia of 0.2-0.9% and suspended to 3% in RPMI containing 44 mg/l hypoxanthine and 10% human type O serum. Aliquots (100 μl) of the suspension were dispensed into the wells of 96-well microtitre plates. To these suspensions 100 μl of the medium were added containing either chloroquine or B669 alone or in combination. The final drug concentrations were 31, 62, 125, 250 500 and 1000 nM for chloroquine and 0.125, 0.25, 0.5 and 1.0 μg/ml for B669. Relevant solvent controls were included. The plates were incubated for 24 hours at 38° C. in a desiccator gassed with 5% O2, 5% CO2 and 90% N2. Thin blood smears were prepared from each well, stained with Giemsa stain and the percentage of red blood cells infected by at least one parasite determined microscopically.
compound,measurement,setting,value
"c1ccc(Nc2cc3nc4ccccc4n(-c4ccccc4)c-3cc2=NC2CCCCC2)cc1 [Compound B669, N,5-bis(phenyl)-3,5-dihydro-3-(cyclohexylimino)-2-phenazinamine]",Percentage red blood cells infected with P. falciparum (Fab-9),B669 0.125 μg/ml + chloroquine 31 nM,3.9%
same,Percentage red blood cells infected with P. falciparum (Fab-9),B669 0.125 μg/ml + chloroquine 500 nM,0.9%
same,Percentage red blood cells infected with P. falciparum (Fab-9),B669 0.125 μg/ml alone,4.0%
same,Percentage red blood cells infected with P. falciparum (Fab-9),B669 0.25 μg/ml + chloroquine 31 nM,3.1%
same,Percentage red blood cells infected with P. falciparum (Fab-9),B669 0.25 μg/ml + chloroquine 125 nM,2.9%
same,Percentage red blood cells infected with P. falciparum (Fab-9),"B669 0.25 μg/ml + chloroquine 500 nM, *parasites morphologically abnormal",0.1%
same,Percentage red blood cells infected with P. falciparum (Fab-9),B669 0.25 μg/ml alone,4.4%
same,Percentage red blood cells infected with P. falciparum (Fab-9),"B669 0.5 μg/ml + chloroquine 31 nM, *parasites morphologically abnormal",2.7%
same,Percentage red blood cells infected with P. falciparum (Fab-9),B669 0.5 μg/ml + chloroquine 125 nM,3.0%
same,Percentage red blood cells infected with P. falciparum (Fab-9),"B669 0.5 μg/ml + chloroquine 500 nM, *parasites morphologically abnormal",0.1%
same,Percentage red blood cells infected with P. falciparum (Fab-9),B669 0.5 μg/ml alone,3.0%
same,Percentage red blood cells infected with P. falciparum (Fab-9),B669 1.0 μg/ml + chloroquine 31 nM,2.9%
same,Percentage red blood cells infected with P. falciparum (Fab-9),B669 1.0 μg/ml + chloroquine 125 nM,0.9%
same,Percentage red blood cells infected with P. falciparum (Fab-9),"B669 1.0 μg/ml + chloroquine 500 nM, *parasites morphologically abnormal",0.1%
same,Percentage red blood cells infected with P. falciparum (Fab-9),"B669 1.0 μg/ml alone, *parasites morphologically abnormal",4.1%
same,direct effect on parasite morphology,B669 alone 1.0 μg/ml,morphological deterioration of the parasites was observed
same,percentage parasitaemia versus untreated control systems,B669 alone 1.0 μg/ml,did not differ from the untreated control systems
same,effect on sensitivity of chloroquine sensitive strain to chloroquine,microscopy,did not increase the sensitivity
